Experiments:
[1] = system: absorption of sodium from the intestinal lumen; assay: Inhibition of intestinal sodium absorption: rat urinary sodium and fecal form 16 h post-dose; type: in vivo, Sprague-Dawley rats; conditions: for FFS (fecal form score): 16 h post-dose, scale 1-5, group average
Description: Urinary sodium concentration and fecal form were measured to assess the ability of selected example compounds to inhibit the absorption of sodium from the intestinal lumen. Eight-week old Sprague-Dawley rats were purchased from Charles River Laboratories (Hollister, Calif.), were housed 2 per cage, and acclimated for at least 3 days before study initiation. Animals were fed Harlan Teklad Global 2018 rodent chow (Indianapolis, Ind.) and water ad libitum throughout the study and maintained in a standard light/dark cycle of 6 AM to 6 PM. On the day of the study, between 4 PM and 5 PM, a group of rats (n=6) were dosed via oral gavage with test compound or vehicle (water) at a volume of 10 mL/kg. After dose administration animals were placed in individual metabolic cages where they were also fed the same chow in meal form and watered ad libitum. At 16 h post-dose, the urine samples were collected and fecal form was assessed by two independent observations. Fecal forms were scored according to a common scale associated with increasing fecal water to the wettest observation in the cage's collection funnel (1, normal pellet; 2, pellet adhering to sides of collection funnel due to moisture; 3, loss of normal pellet shape; 4, complete loss of shape with a blotting pattern; 5, liquid fecal streams evident). A rat's fecal form score (FFS) was determined by averaging both observational scores for all rats within a group (n=6). The vehicle group average was 1. For urine samples, the volumes were determined gravimetrically and centrifuged at 3,600×g. The supernatants were diluted 100-fold in deionized Milli-Q water then filtered through a 0.2 μm GHP Pall AcroPrep filter plate (Pall Life Sciences, Ann Arbor, Mich.) prior to analysis by ion chromatography. Ten microliters of each filtered extract was injected onto a Dionex ICS-3000 ion chromatograph system (Dionex, Sunnyvale, Calif.). Cations were separated by an isocratic method using 25 mM methanesulfonic acid as the eluent on an IonPac CS12A 2 mm i.d.×250 mm, 8 μm particle size cation exchange column (Dionex). Sodium was quantified using standards prepared from a cation standard mix containing Li^+, Na^+, NH4^+, K^+, Mg^2+, and Ca^2+ (Dionex). The mean mass of sodium urinated for every group in the 16 h period was determined with the vehicle group usually urinating approximately 21 mg sodium. The urine Na (uNa) for rats in the test groups were expressed as a percentage of the vehicle mean and the means were compared to that of the vehicle group by utilizing a one-way analysis of variance coupled with a Dunnett's post hoc test.

[2] = target: T1, human NHE3 (Homo sapiens, UniProt P48764); assay: Cell-based assay of NHE-3 activity (persistent inhibition), human; conditions: PS120 fibroblasts stably expressing human NHE3, 60 min incubation then washout; for IC50: read-out: pIC50 (human Persistence assay) (converted)
T1 sequence (P48764 26-834): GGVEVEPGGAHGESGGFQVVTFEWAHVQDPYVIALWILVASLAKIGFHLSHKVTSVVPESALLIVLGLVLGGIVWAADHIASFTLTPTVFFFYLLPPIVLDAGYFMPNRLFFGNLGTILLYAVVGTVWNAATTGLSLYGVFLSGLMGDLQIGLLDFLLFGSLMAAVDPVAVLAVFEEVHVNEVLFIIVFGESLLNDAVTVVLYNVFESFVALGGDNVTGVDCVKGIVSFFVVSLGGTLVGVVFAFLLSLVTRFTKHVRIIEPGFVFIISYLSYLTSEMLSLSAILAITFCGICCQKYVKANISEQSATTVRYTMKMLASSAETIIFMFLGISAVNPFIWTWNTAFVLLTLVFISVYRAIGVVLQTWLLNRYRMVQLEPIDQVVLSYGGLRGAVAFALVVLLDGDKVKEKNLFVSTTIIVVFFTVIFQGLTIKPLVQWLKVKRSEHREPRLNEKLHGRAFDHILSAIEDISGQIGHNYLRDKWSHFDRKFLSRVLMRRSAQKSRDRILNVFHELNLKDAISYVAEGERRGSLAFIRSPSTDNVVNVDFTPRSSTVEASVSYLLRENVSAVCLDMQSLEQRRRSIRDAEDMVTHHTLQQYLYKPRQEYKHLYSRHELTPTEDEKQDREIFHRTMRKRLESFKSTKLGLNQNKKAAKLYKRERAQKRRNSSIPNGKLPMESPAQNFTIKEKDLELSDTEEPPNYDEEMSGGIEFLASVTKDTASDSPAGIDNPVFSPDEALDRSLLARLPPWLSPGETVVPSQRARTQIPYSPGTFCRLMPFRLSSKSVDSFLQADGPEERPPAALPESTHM
Description: The ability of compounds to inhibit human and rat NHE-3-mediated Na^+-dependent H^+ antiport after application and washout was measured using a modification of the pH sensitive dye method described above. PS120 fibroblasts stably expressing human NHE3 were obtained from Mark Donowitz (Baltimore, Md.). Opossum kidney (OK) cells were obtained from the ATCC and propagated per their instructions. The rat NHE-3 gene was introduced into OK cells via electroporation, and cells were seeded into 96 well plates and grown overnight. Medium was aspirated from the wells, cells were washed once with NaCl-HEPES buffer (100 mM NaCl, 50 mM HEPES, 10 mM glucose, 5 mM KCl, 2 mM CaCl2, 1 mM MgCl2, pH 7.4), then overlayed with NaCl-HEPES buffer containing 0-30 μM test compound. After a 60 min incubation at room temperature, the test drug containing buffer was aspirated from the cells. Following aspiration, cells were washed once with NaCl-HEPES buffer without drug, then incubated for 30 min at 37° C. with NH4Cl-HEPES buffer (20 mM NH4Cl, 80 mM NaCl, 50 mM HEPES, 5 mM KCl, 2 mM CaCl2, 1 mM MgCl2, pH 7.4) containing 5 μM BCECF-AM. Cells were washed once with Ammonium free, Na^+-free HEPES (100 mM choline, 50 mM HEPES, 10 mM glucose, 5 mM KCl, 2 mM CaCl2, 1 mM MgCl2, pH 7.4) and incubated in the same buffer for 10 minutes at room temperature to lower intracellular pH. NHE-3-mediated recovery of neutral intracellular pH was initiated (10 min after compound washout) by addition of Na-HEPES buffer. […] Changes in intracellular pH were monitored using a FLIPR Tetra® (Molecular Devices, Sunnyvale, Calif.) by excitation at λex 439 to 505 nm, and measuring BCECF fluorescence at λem 538 nm. The initial rate of the fluorescence ratio change was used as a measure of NHE-mediated Na^+/H^+ activity, and reported as the change in fluorescence ratio per minute. Initial rates were plotted as the average 2 or more replicates, and pIC50 values were estimated using GraphPad Prism.

[3] = oral gavage 10 mg/kg, urine 16 h post-dose, read-out: uNa Result, uNa (% of vehicle)

% inhibition (human Persistence assay) [2]	IC50 [2] [nM]	Compound	FFS (fecal form score) ([1]; oral gavage 10 mg/kg)	response vs control in vivo at 10 mg/kg [1, 3] [%]	FFS (fecal form score) ([1]; oral gavage 3 mg/kg)	response vs control in vivo at 3 mg/kg ([1]; oral gavage 3 mg/kg, urine 16 h post-dose, read-out: uNa Result, uNa (% of vehicle)) [%]
C (>70%)	100 to 1000	CN(C)[C@H]1Cc2c(Cl)cc(Cl)cc2[C@@H]1Oc1ccc(S(=O)(=O)NCCOCCOCCNC(=O)COCC(=O)NCCOCCOCCNS(=O)(=O)c2ccc(O[C@H]3c4cc(Cl)cc(Cl)c4C[C@@H]3N(C)C)cc2)cc1 [Example 9, 2,2′-oxybis(N-(2-(2-(2-(4-((1S,2S)-4,6-dichloro-2-(dimethylamino)-2,3-dihydro-1H-inden-1-yloxy)phenylsulfonamido)ethoxy)ethoxy)ethyl)acetamide)]			2	35 to 75
B (40-70%)	< 100	CN(C)[C@H]1Cc2c(Cl)cc(Cl)cc2[C@@H]1Oc1ccc(S(=O)(=O)NCCOCCOCCNC(=O)CCC(C)(N)CCC(=O)NCCOCCOCCNS(=O)(=O)c2ccc(O[C@H]3c4cc(Cl)cc(Cl)c4C[C@@H]3N(C)C)cc2)cc1 [Example 11, 4-amino-N1,N7-bis(2-(2-(2-(4-((1S,2S)-4,6-dichloro-2-(dimethylamino)-2,3-dihydro-1H-inden-1-yloxy)phenylsulfonamido)ethoxy)ethoxy)ethyl)-4-methylheptanediamide]		35 to 75		
A (NHE3 <40%)	> 1000	O=C(NCCCCNC(=O)NCCOCCOCCNC(=O)Nc1cccc(O[C@H]2c3ccccc3C[C@@H]2N2CCCCC2)c1)NCCOCCOCCNC(=O)Nc1cccc(O[C@H]2c3ccccc3C[C@@H]2N2CCCCC2)c1 [Example 13, 1-{2-[2-(2-{[(3-{[(1S,2S)-2-(piperidin-1-yl)-2,3-dihydro-1H-inden-1-yl]oxy}phenyl)carbamoyl]amino}ethoxy)ethoxy]ethyl}-3-{4-[({2-[2-(2-{[(3-{[(1S,2S)-2-(piperidin-1-yl)-2,3-dihydro-1H-inden-1-yl]oxy}phenyl)carbamoyl]amino}ethoxy)ethoxy]ethyl}carbamoyl)amino]butyl}urea]		> 75		
C (>70%)	> 1000	O=C(NCCCCNC(=O)NCCOCCOCCNS(=O)(=O)c1ccc(O[C@H]2c3ccccc3C[C@@H]2N2CCCCC2)cc1)NCCOCCOCCNS(=O)(=O)c1ccc(O[C@H]2c3ccccc3C[C@@H]2N2CCCCC2)cc1 [Example 14]		35 to 75		
C (>70%)	> 1000	O=C(NCCCCNC(=O)NCCOCCOCCNS(=O)(=O)c1ccc(O[C@H]2c3cc(Cl)cc(Cl)c3C[C@@H]2N2CCCCC2)cc1)NCCOCCOCCNS(=O)(=O)c1ccc(O[C@H]2c3cc(Cl)cc(Cl)c3C[C@@H]2N2CCCCC2)cc1 [Example 15]		35 to 75		
B (40-70%)	> 1000	O=C(NCCCCNC(=O)NCCOCCOCCOCCNS(=O)(=O)c1ccc(O[C@H]2c3ccccc3C[C@@H]2N2CCCCC2)cc1)NCCOCCOCCOCCNS(=O)(=O)c1ccc(O[C@H]2c3ccccc3C[C@@H]2N2CCCCC2)cc1 [Example 16]		< 35		

The next lines start with the molecule.

Compound	% inhibition (human Persistence assay) [2]	IC50 [2] [nM]	FFS (fecal form score) ([1]; oral gavage 10 mg/kg)	response vs control in vivo at 10 mg/kg [1, 3] [%]	FFS (fecal form score) ([1]; oral gavage 3 mg/kg)	response vs control in vivo at 3 mg/kg ([1]; oral gavage 3 mg/kg, urine 16 h post-dose, read-out: uNa Result, uNa (% of vehicle)) [%]
CN(C)[C@H]1Cc2c(Cl)cc(Cl)cc2[C@@H]1Oc1ccc(S(=O)(=O)NCCOCCOCCNC(=O)NCCCCNC(=O)NCCOCCOCCNS(=O)(=O)c2ccc(O[C@H]3c4cc(Cl)cc(Cl)c4C[C@@H]3N(C)C)cc2)cc1 [Example 1, (S,S)—N,N′-(10,17-dioxo-3,6,21,24-tetraoxa-9,11,16,18-tetraazahexacosane-1,26-diyl)bis(4-((1S,2S)-4,6-dichloro-2-(dimethylamino)-2,3-dihydro-1H-inden-1-yloxy)benzenesulfonamide)]	C (>70%)	< 100	1	< 35		
N[C@@H]1CCCN([C@H]2Cc3c(Cl)cc(Cl)cc3[C@@H]2Oc2ccc(S(=O)(=O)NCCOCCOCCNC(=O)NCCCCNC(=O)NCCOCCOCCNS(=O)(=O)c3ccc(O[C@H]4c5cc(Cl)cc(Cl)c5C[C@@H]4N4CCC[C@@H](N)C4)cc3)cc2)C1 [Example 3, (S,S,R)—N,N′-(10,17-dioxo-3,6,21,24-tetraoxa-9,11,16,18-tetraazahexacosane-1,26-diyl)bis(4-((1S,2S)-2-((R)-3-aminopiperidin-1-yl)-4,6-dichloro-2,3-dihydro-1H-inden-1-yloxy)benzenesulfonamide)]	C (>70%)	< 100		35 to 75		
O=C(NCCCCNC(=O)NCCOCCOCCNS(=O)(=O)c1ccc(O[C@H]2c3cc(Cl)cc(F)c3C[C@@H]2N2CC[C@@H](O)C2)cc1)NCCOCCOCCNS(=O)(=O)c1ccc(O[C@H]2c3cc(Cl)cc(F)c3C[C@@H]2N2CC[C@@H](O)C2)cc1 [Example 4, (S,S,R)—N,N′-(10,17-dioxo-3,6,21,24-tetraoxa-9,11,16,18-tetraazahexacosane-1,26-diyl)bis(4-((1S,2S)-6-chloro-4-fluoro-2-((R)-3-hydroxypyrrolidin-1-yl)-2,3-dihydro-1H-inden-1-yloxy)benzenesulfonamide)]	B (40-70%)	< 100	1	> 75		
CN(C)[C@H]1Cc2c(Cl)cc(Cl)cc2[C@@H]1Oc1ccc(S(=O)(=O)NCCOCCOCCNC(=O)[C@H](O)[C@@H](O)C(=O)NCCOCCOCCNS(=O)(=O)c2ccc(O[C@H]3c4cc(Cl)cc(Cl)c4C[C@@H]3N(C)C)cc2)cc1 [Example 5, (2R,3R)—N1,N4-bis(2-(2-(2-(4-((1S,2S)-4,6-dichloro-2-(dimethylamino)-2,3-dihydro-1H-inden-1-yloxy)phenylsulfonamido)ethoxy)ethoxy)ethyl)-2,3-dihydroxysuccinamide]	C (>70%)	100 to 1000	1	< 35		

— patent publication US10376481B2, “Compounds and methods for inhibiting NHE-mediated antiport in the treatment of disorders associated with fluid retention or salt overload and gastrointestinal tract disorders” (ARDELYX, INC, priority 2012, dated 2019)
